In assay [1] the target is T1, PD-1:PD-L1 complex (Homo sapiens, UniProt Q9NZQ7).
T1 construct: purchased Sino Biologicals (PD-L1); R&D system (PD-1 Fc) 10084-H08H; 1086-PD; host or cells: mammalian cells
Kind of assay: TR-FRET PD-1:PD-L1 complex formation assay. The conditions noted are these: for Percent inhibition: duplicates. The class given is binding. The procedure: The assay was performed using LANCE Ultra TR-FRET binding assay. To determine the half maximal inhibitory concentration (IC50) of tested compounds, they were solubilized in water and measurements were performed on individual dilution series. His-tagged human recombinant PD-L1 protein (Sino Biologicals, Cat#10084-H08H) at 20 nM final concentration was incubated at 25 °C temperature with indicated concentration of test compound for 15 min in a white Lumitec high-binding, 384-well plate (Grenier, Cat #781074). […] LANCE Eu-anti-human IgG from Perkin Elmer, (Cat# AD0212) at 0.5 nM final concentration and Surelight Allophycocyanin-6-His from Perkin Elmer (Cat# AD0059H) at 20 nM final concentration was added to the wells. […] Collected data was background subtracted on the negative control, normalized, and analyzed using non-linear regression analysis to determine the IC50 value by GraphPad Prism Version 8.
On the technique in general: TR-FRET usually uses a lanthanide donor and a delayed reading to cut background.

For assay [2], the target named is T2, full-length human PD-L1 overexpressed in CHO-K1 cells (Homo sapiens, UniProt Q9NZQ7).
T2 construct: plasmid (pLVX puro-PD-L1; full-length human PD-L1); expressed in transfected cells; host or cells: CHO-K1 (lentiviral transduction)
T2 sequence (Q9NZQ7 19-290): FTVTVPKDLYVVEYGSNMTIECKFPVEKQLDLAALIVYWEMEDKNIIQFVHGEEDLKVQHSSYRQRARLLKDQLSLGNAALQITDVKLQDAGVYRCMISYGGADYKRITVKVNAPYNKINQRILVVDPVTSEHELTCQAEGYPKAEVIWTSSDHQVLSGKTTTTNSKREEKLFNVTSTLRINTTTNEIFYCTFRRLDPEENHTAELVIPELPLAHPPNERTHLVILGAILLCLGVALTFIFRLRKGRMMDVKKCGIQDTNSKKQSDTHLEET
Kind of assay: Cellular NMR (T2) binding, PD-L1 overexpressing CHO-K1 cells. Conditions: for I/I0 / T2: trials 1-3. The procedure: HEK293T cells were transfected with plasmid (pLVX puro-PD-L1; full-length human PD-L1) using Lenti-X packaging single shots (Takara Bio, Cat. Nos. 631275) as per the recommended kit protocol in order to generate lentiviral particles. The supernatant collected after 48 h containing the lentiviral particles was used for lentiviral transduction of CHO-K1 cells. The expression of PD-L1 on the CHO-K1 cells was determined by flow cytometry. Limiting dilution cloning was performed to isolate single clones of CHO-K1 cells expressing high levels of PD-L1.
PD-L1 transfected CHO-K1 cells were cultured in Ham’s F12 K medium (Cat#21127-022, Gibco) containing penicillin & streptomycin antibiotic solution and 10% FBS (cat#SH30071-03, HyClone) along with 4 µg/mL of puromycin (Cat#A11138-03, Gibco), and were grown at 37 °C, 5% CO2 in a humidified atmosphere in tissue culture treated flask. 80–90% confluent cells were detached with PBS containing 2 mM EDTA, counted and washed twice with phosphate-buffered saline, pH 7.4 and re-suspended in PBS(cat#14190-144 Gibco) at a density of 8 million cells per mL. The cell suspension in PBS was transferred in a 5 mm Norell NMR tube containing 5% D2O and NMR experiments were performed under ligand titration. Cells remained viable under these experimental conditions as assessed by Trypan Blue staining method.
NMR experiments were carried out using Bruker 800 MHz NMR spectrometer fitted with 5 mm TCI cryoprobe. The experiment was performed over 4 × 10^6 cells in 95% 1 X PBS, pH 7.4, after adding 5% (v/v) D2O at constant temperature 298 K employing the pulse sequence shown in Supplementary Fig. 1a. The FID obtained was processed employing TOPSPIN software version 3.5. The interaction studies of CA-170 and overexpressed cells were carried out using a two-point HSQC method by recording the first FID. Briefly, during the transfer of polarization from ^1H to ^13C in the forward INEPT part of the 2D [^13C, ^1H] HSQC experiment, an additional delay of 16 ms is introduced on the proton channel during which the signal decays due to transverse relaxation. A second experiment is recorded with this delay set to […], the experimental parameters used to record these two spectra are given in Supplementary Table 7. A representative NMR spectrum of superimposed first FID of modified 2D [^13C, ^1H] HSQC of CA-170 treatment with PD-L1 overexpressed CHO-K1 cells is shown in Supplementary Fig. 1b.
The signal at any point of time is related to the initial intensity as follows. I=Ioexp(−Δt/T2) Where Δt is the difference between initial and final time points and I and Io are the final and initial intensity respectively. The transverse relaxation time (T2) of the ligand protons is calculated from the signal intensity ratio obtained from the above experiments by using the following equation which can be obtained from the above relation (Supplementary Table 8). T2=Relaxationdelay(τ)/−log(I/I0) where I = Area of the peak with delay (16 ms delay); I0 = Area of the peak without delay (16 μs delay).

For assay [3], the target named is PD-L1 (Macaca fascicularis, UniProt G7PSE7). The experiment in a line: Rescue of proliferation inhibited by PD-L1, monkey PBMC. Format: cell-based. Conditions: n=1. The procedure: The ability of peptides, peptidomimetics, and small molecules were analyzed for their ability to rescue T-cell proliferation or IFN-γ release from the inhibitory activity of PD-L1 or PD-L2 in a splenocyte/PBMC-based functional assay as per the protocols reported in publication. […] For all in vitro assays, test agent stock was prepared in water and diluted further in the assay media to achieve test concentrations. Each experimental condition was carried out in triplicates. Percent rescue for a given test compound concentration was calculated by normalizing individual percent test agent proliferation or IFN-γ release values to percent anti-CD3 and anti-CD28 antibodies stimulated proliferation or IFN-γ release. EC50 values were derived by plotting transformed data into non-linear fit in sigmoidal dose–response curve using GraphPad Prism software (Version 7).
PD-L1, sequence (G7PSE7 19-239): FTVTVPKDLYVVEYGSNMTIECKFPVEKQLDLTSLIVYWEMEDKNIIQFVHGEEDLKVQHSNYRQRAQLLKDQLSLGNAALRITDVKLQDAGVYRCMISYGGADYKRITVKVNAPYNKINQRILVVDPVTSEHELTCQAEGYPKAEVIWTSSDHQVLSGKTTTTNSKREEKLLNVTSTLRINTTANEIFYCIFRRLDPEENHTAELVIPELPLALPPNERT

The test system of assay [4] is broad panel of receptors and enzymes. Kind of assay: CEREP 80-panel profiling, whole panel. The class given is binding. The conditions noted are these: CEREP profiling assay. The procedure:
CEREP 80 panel assay was carried out by Eurofins Cerep Panlabs facility at France. A series of binding assays was carried out to understand the off-target toxicity of CA-170. CA-170 was tested at 10 μM test concentration in duplicates. Compound binding was calculated as a % inhibition of the binding of a radioactively labeled ligand specific for each target. In each experiment the respective reference compound was tested concurrently with CA-170, and the data were compared with historical values determined at Eurofins. The experiment was accepted in accordance with Eurofins validation standard operating procedure. The results are expressed as a percent of control specific binding; (measured specific binding / control specific binding) × 100 and as a percent inhibition of control specific binding; 100−(measured specific binding / control specific binding) × 100 obtained in the presence of CA-170. The IC50 values (concentration causing a half-maximal inhibition of control specific binding) and Hill coefficients (nH) were determined by non-linear regression analysis of the competition curves generated with mean replicate values using Hill equation curve fitting.

Setting [5] is: CA-170 5.0 µM, PD-L1 overexpressed CHO-K1.
Setting [6] is: CA-170 7.5 μM, PD-L1 Overexpressed CHO-K1.
Setting [7] is: CA-170 10.0 μM, PD-L1 Overexpressed CHO-K1.
Where [8] appears, read: CA-170 15.0 μM, PD-L1 Overexpressed CHO-K1.
The mark [9] stands for this setting: CA-170 20.0 μM, PD-L1 Overexpressed CHO-K1.
The mark [10] stands for this setting: CA-170 40.0 μM, PD-L1 Overexpressed CHO-K1.

Several values for one entry are separate records, joined by “and”; a condition that tells them apart may be missing. Equal values may be shown once.

The values that follow come from article PMC8187357 (Communications Biology, 2021).

As usually defined, the EC50 is the concentration giving half of the maximal effect.

T1 sequence (Q9NZQ7 19-239 limits assumed, one chain of several): as the sequence (G7PSE7 19-239) above, with T33A, S34A, N62S, Q68R, R82Q, L173F, A185T, I192T, L215H counted along it

Take `C[C@@H](O)[C@H](NC(=O)N[C@@H](CC(N)=O)c1nc([C@@H](N)CO)no1)C(=O)O` [CA-170]: the Percent inhibition in assay [1] (1e-7 M) is 6.182% and -0.9776%; in assay [1] (1e-6 M), -12.4686% and -2.961%; in assay [1] (1e-5 M) it was -7.3407% and -7.039%; in assay [1] (0.0001 M), -7.475% and -8.751%. Also, the “prevention of PD-1:PD-L1 complex formation (in words)” value in assay [1] (tested up to 100 μM) is listed as “did not lead to prevention of complex formation”. Moreover, the I/I0 was 0.34 and 0.35 in assay [2] (setting [5]); 0.43 and 0.4 and 0.49 in assay [2] (setting [6]); 0.45 and 0.47 and 0.39 in assay [2] (setting [7]); 0.55 and 0.48 and 0.49 in assay [2] (setting [8]); 0.57 and 0.53 and 0.51 in assay [2] (setting [9]); 0.58 and 0.55 and 0.57 in assay [2] (setting [10]). The T2 in assay [2] (setting [5]) was 29.67 mS and 35.08 mS and 33.97 mS; in assay [2] (setting [6]), 43.70 mS and 51.60 mS and 41.00 mS; in assay [2] (setting [7]), 46.10 mS and 48.48 mS and 38.70 mS; in assay [2] (setting [8]) it was 61.50 mS and 50.00 mS and 52.00 mS; in assay [2] (setting [9]), 66.12 mS and 58.18 mS and 55.36 mS; in assay [2] (setting [10]), 67.51 mS and 61.50 mS and 66.67 mS. The “binding to PD-L1 overexpressed in the cellular context (in words)” value in assay [2] (cell-based NMR) was “specific interaction of CA-170 to PD-L1”. The EC50 in assay [3] was 34 nM. The “interaction with panel of receptors and enzymes (in words)” value in assay [4] was “minimal or no interaction”.
